The results in this text go back to ChEMBL document CHEMBL1140101, “Synthesis, binding affinity, and molecular docking analysis of new benzofuranone derivatives as potential antipsychotics” (J Med Chem, 2008).

Usually Ki stands for a measure of affinity in units of concentration, obtained from inhibition or displacement. The term pA2 denotes the negative logarithm of the molar antagonist concentration that doubles the agonist concentration needed for the same response. Low readings indicate lower antagonist potency, high ones higher antagonist potency.

Test [1] addresses T1, 5-hydroxytryptamine receptor 2A (Homo sapiens, UniProt P28223). The test is described as follows: Displacement of [3H]ketanserin from human cloned 5HT2A receptor. A general note: Loss of bound radioactivity is the signal in a displacement assay; it reports binding, not function.
Test [2] addresses T2, 5-hydroxytryptamine receptor 2C (Homo sapiens, UniProt P28335).
T2 sequence (P28335 whole entry): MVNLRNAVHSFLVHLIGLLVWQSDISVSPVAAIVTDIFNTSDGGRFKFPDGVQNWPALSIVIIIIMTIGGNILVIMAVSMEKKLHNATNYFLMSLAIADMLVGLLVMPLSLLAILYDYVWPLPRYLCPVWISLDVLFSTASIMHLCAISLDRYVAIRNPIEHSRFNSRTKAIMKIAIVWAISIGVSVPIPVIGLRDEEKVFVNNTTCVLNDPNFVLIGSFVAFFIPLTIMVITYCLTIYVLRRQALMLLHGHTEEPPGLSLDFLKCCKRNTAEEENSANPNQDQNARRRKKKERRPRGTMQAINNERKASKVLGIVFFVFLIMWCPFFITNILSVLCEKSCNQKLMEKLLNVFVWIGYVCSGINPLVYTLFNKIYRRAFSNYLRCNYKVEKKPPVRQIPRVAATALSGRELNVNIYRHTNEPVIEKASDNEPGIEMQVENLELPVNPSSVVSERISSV
In words: Displacement of [3H]mesulergine from human cloned 5HT2C receptor.

Test [3] deals with T1, 5-hydroxytryptamine receptor 2A. In words: Antagonist activity at human cloned 5HT2A receptor. The format is functional.

Structures are written as SMILES. A value given as a limit tells only on which side of the number the result lay.

T1 sequence (P28223 whole entry): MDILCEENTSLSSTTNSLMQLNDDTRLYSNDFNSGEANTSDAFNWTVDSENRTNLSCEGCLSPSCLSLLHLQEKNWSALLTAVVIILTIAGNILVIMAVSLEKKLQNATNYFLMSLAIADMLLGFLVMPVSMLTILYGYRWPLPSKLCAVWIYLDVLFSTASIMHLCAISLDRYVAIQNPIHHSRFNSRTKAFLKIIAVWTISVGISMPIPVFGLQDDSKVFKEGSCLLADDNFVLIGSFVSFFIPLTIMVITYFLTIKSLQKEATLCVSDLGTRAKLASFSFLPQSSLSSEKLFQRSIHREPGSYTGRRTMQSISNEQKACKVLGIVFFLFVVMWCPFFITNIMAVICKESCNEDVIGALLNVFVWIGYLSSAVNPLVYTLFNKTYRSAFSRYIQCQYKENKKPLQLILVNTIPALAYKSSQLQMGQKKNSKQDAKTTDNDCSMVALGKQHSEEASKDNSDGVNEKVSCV

Regarding `O=C1CC(CN2CCC(C(=O)c3ccc(F)cc3)CC2)Cc2occc21` (stereo not drawn), the inhibitory constant (Ki) in test [1] was 0.0955 µM; in test [2] it was 1.55 µM. The compound further returned a pA2 in test [3] of 7.28.
Turning to `O=C(c1ccc(F)cc1)C1CCN(CCC2CCc3occc3C2=O)CC1` (stereo not drawn), the figures for the Ki in test [1] and in test [2] were 0.0776 µM and 0.339 µM, respectively. Besides, the pA2 in test [3] came out at 7.58.
Turning to `O=C1c2ccoc2CCC1CCN1CCC(c2noc3cc(F)ccc23)CC1` (stereo not drawn), in test [3], the pA2 worked out at 9.25.
Consider `CCOC(=O)c1oc2c(c1C)C(=O)CC(CN1CCC(c3noc4cc(F)ccc34)CC1)C2` (stereo not drawn), for which the results for the inhibitory constant (Ki) in test [1] and in test [2] were 0.00832 µM and greater than 10 µM, respectively.
The like results for `COC(=O)c1coc2c1C(=O)CC(CN1CCC(c3noc4cc(F)ccc34)CC1)C2` (stereo not drawn) were, in that order, 0.00155 µM and greater than 10 µM.
In the same order, the values of `O=C1C[C@@H](CN2CCC(c3noc4cc(F)ccc34)CC2)Cc2occc21` are 0.00251 µM and 0.245 µM.
In the same order, the values of `COC(=O)c1coc2c1C(=O)CC(CN1CCC(C(=O)c3ccc(F)cc3)CC1)C2` (stereo not drawn) are 0.0257 µM and greater than 10 µM.
Turning to `O=C1CC(CN2CCC(C(=O)c3ccc(F)cc3)CC2)Cc2oc(-c3ccccc3)cc21` (stereo not drawn), the Ki in test [1] was 0.0174 µM; in test [2] it was greater than 10 µM.
Turning to `CCOC(=O)c1oc2c(c1C)C(=O)CC(CN1CCC(C(=O)c3ccc(F)cc3)CC1)C2` (stereo not drawn), the Ki in test [1] was 0.0219 µM; in test [2] it was greater than 10 µM.
In the same order, the values of `O=C1CC(CN2CCC(c3noc4cc(F)ccc34)CC2)Cc2oc(-c3ccccc3)cc21` (stereo not drawn) are 0.00692 µM and 3.31 µM.
In the same order, the values of `O=C1CC(CN2CCN(C(=O)c3ccc(F)cc3)CC2)Cc2occc21` (stereo not drawn) are 1.32 µM and greater than 10 µM.
With `O=C1C[C@H](CN2CCC(c3noc4cc(F)ccc34)CC2)Cc2occc21`, the figures for the inhibitory constant (Ki) in test [1] and in test [2] were 0.00513 µM and 0.372 µM, respectively.
For the compound `O=C1CC(CN2CCC(c3noc4cc(F)ccc34)CC2)Cc2occc21` (racemic), the inhibition constant Ki in test [1] was 0.0055 µM; in test [2] it was 0.339 µM. This compound yielded a pA2 in test [3] of 7.95.
